Data taken from PMC10180078, “In Silico and In Vitro Assessment of Carbonyl Reductase 1 Inhibition Using ASP9521—A Potent Aldo-Keto Reductase 1C3 Inhibitor with the Potential to Support Anticancer Therapy Using Anthracycline Antibiotics” (Molecules, 2023).
pIC50: −log10 of the molar value.

Biological target: T1, carbonyl reductase 1 (CBR1) (Homo sapiens, UniProt P16152)
T1 construct: human recombinant CBR1 expressed in Escherichia coli Rosetta (DE3)
T1 sequence (P16152 2-277): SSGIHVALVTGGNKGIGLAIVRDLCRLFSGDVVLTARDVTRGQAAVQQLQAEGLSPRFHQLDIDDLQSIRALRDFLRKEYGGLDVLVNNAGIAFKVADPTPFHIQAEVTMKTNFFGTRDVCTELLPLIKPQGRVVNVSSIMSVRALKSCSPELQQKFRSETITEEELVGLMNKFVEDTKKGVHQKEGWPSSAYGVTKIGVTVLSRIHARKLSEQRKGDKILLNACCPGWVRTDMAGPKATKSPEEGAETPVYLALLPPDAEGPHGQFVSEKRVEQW
Experiment: recombinant CBR1 inhibition, menadione substrate, NADPH oxidation monitored at […] nm
Assay type: biochemical

## COc1ccc2[nH]c(C(=O)N3CCC(CC(C)(C)O)CC3)cc2c1 [ASP9521]
  pIC50: 4.36
